According to US8318779B2, “Lysine related derivatives as HIV aspartyl protease inhibitors” (priority 2006, dated 2012):
Where two headings read alike, the source gives them in different places.

Experiments:
[1] = tested on: wild type laboratory HIV strain (WT IIIB-2-001); assay: Cellular anti-viral assay in HIV-infected MT4-LTR-EGFP cells (GFP reporter), wild type strain; type: cell-based
Experimental: The compound having structural formula (III) was tested in a cellular assay using the MT4-LTR-EGFP cells for anti-viral activity.
(§1) The cellular assay was performed according to the following procedure.
(§2) HIV- or mock-infected MT4-LTR-EGFP cells were incubated for three days in the presence of various concentrations of the compound according to the invention. As reference compounds APV, IDV, RTV, NFV, TPV and LPV were used. Upon infection, the viral tat protein activates the GFP reporter. At the end of the incubation period, the GFP signal was measured. In the virus control samples (in the absence of any inhibitor) the maximal fluorescent signal was obtained. The inhibitory activity of the compounds were monitored on the virus-infected cells and were expressed as EC50. These values represent the amount of the compound required to protect 50% of the cells from virus infection.

[2] = tested on: clinically isolated HIV strain r13363 harboring several mutations; assay: Cellular anti-viral assay in HIV-infected MT4-LTR-EGFP cells (GFP reporter), clinically isolated mutant strain; type: cell-based
Experimental: Because of the increasing emergence of drug resistant HIV strains, the present compound was also tested for its potency against a clinically isolated HIV strain harboring several mutations. These mutations are associated with resistance to protease inhibitors and result in viruses that show various degrees of phenotypic cross-resistance to the currently commercially available drugs such as for instance saquinavir, ritonavir, nelfinavir, indinavir and amprenavir. The viral strain tested R13363 contains mutations as indicated below.
as §1, §2

[3] = Human immunodeficiency virus 1, IIIB, read-out: HIV-AVE-MT4LTREGFP-IIIB pEC50 (converted)
[4] = Human immunodeficiency virus 1, read-out: HIV-AVE-MT4LTREGFP-r13363 pEC50 (converted)

Row | SMILES | EC50 [1, 3] | EC50 [2, 4] | other results
1 | Cc1cccc(C)c1OCC(=O)N[C@@H](Cc1ccccc1)[C@@H](O)C[C@H](Cc1ccccc1)NC(=O)[C@H](C(C)C)N1CCCNC1=O [LPV, lopinavir] | 12.6 nM | 631 nM | –
2 | COC(=O)N[C@H](C(=O)NCCCC[C@@H](CO)N(CC(C)C)S(=O)(=O)c1ccc(CN)cc1)C(c1ccccc1)c1ccccc1 [formula (III), (S)—(S)-(1-{5-[(4-Aminomethyl-benzenesulfonyl)-isobutyl-amino]-6-hydroxy-hexylcarbamoyl}-2,2-diphenyl-ethyl)-carbamic acid methyl ester] | – | – | EC50 ([1]; Human immunodeficiency virus 1, 72 h, wild type (IIIB), MT4-LTR-EGFP cells, three days incubation, read-out: pEC50—IIIB (converted)): 31.6 nM; anti-HIV activity against wild type laboratory HIV strain ([1]; MT4-LTR-EGFP cells, WT IIIB-2-001): potent anti-HIV activity; EC50 ([2]; Human immunodeficiency virus 1, 72 h, read-out: pEC50-r13363 (converted)): 31.6 nM
3 | CC(C)c1nc(CN(C)C(=O)N[C@H](C(=O)N[C@@H](Cc2ccccc2)C[C@H](O)[C@H](Cc2ccccc2)NC(=O)OCc2cncs2)C(C)C)cs1 [RTV, ritonavir] | 63.1 nM | 10000 nM | –
4 | Cc1c(O)cccc1C(=O)N[C@@H](CSc1ccccc1)[C@H](O)CN1C[C@H]2CCCC[C@H]2C[C@H]1C(=O)NC(C)(C)C [NFV, nelfinavir] | 63.1 nM | 1580 nM | –
5 | CC(C)CN(C[C@@H](O)[C@H](Cc1ccccc1)NC(=O)O[C@H]1CCOC1)S(=O)(=O)c1ccc(N)cc1 [APV, amprenavir] | 50.1 nM | 10000 nM | –
6 | CCC[C@@]1(CCc2ccccc2)CC(O)=C([C@H](CC)c2cccc(NS(=O)(=O)c3ccc(C(F)(F)F)cn3)c2)C(=O)O1 [TPV] | – | – | HIV-AVE-MT4LTREGFP-IIIB pEC50 ([1]; reference compounds, wild type (IIIB), MT4-LTR-EGFP cells): 6.3 =; HIV-AVE-MT4LTREGFP-r13363 pEC50 ([2]; reference compounds, clinically isolated HIV strain r13363, MT4-LTR-EGFP cells): 6.3
7 | CC(C)(C)NC(=O)[C@@H]1CN(Cc2cccnc2)CCN1C[C@@H](O)C[C@@H](Cc1ccccc1)C(=O)N[C@H]1c2ccccc2C[C@H]1O [IDV, indinavir] | 39.8 nM | 398 nM | –
